Target: T1, human α4β7 (Homo sapiens, UniProt P13612+P26010)
T1 construct: expressed in transfected cells
T1 sequence (P13612 34-1032): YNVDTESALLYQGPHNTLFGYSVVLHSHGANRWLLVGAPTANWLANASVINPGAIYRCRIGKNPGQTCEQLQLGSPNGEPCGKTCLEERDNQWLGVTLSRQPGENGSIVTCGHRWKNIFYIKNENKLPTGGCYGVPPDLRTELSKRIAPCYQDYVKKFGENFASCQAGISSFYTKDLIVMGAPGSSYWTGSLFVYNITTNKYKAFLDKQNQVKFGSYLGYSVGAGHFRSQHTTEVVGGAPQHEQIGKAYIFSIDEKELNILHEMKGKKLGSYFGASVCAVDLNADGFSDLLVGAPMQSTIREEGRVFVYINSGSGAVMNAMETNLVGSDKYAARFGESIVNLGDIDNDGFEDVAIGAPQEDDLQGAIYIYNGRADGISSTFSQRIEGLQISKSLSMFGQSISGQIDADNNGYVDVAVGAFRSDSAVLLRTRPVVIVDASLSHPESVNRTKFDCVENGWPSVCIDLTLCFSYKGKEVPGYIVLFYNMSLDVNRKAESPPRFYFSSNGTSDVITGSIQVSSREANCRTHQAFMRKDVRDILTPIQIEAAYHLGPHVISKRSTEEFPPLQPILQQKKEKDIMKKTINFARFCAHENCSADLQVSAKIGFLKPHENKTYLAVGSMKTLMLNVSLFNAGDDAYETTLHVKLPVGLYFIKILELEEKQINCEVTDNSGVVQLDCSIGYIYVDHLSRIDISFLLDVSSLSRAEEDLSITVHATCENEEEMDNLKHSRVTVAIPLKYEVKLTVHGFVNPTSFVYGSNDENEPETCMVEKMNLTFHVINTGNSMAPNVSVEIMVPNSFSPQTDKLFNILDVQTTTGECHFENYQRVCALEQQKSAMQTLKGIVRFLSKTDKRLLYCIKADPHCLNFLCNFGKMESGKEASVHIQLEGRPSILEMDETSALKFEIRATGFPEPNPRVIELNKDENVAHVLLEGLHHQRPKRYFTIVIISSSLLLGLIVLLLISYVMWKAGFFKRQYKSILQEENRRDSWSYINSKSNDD
T1 sequence (P26010 20-798): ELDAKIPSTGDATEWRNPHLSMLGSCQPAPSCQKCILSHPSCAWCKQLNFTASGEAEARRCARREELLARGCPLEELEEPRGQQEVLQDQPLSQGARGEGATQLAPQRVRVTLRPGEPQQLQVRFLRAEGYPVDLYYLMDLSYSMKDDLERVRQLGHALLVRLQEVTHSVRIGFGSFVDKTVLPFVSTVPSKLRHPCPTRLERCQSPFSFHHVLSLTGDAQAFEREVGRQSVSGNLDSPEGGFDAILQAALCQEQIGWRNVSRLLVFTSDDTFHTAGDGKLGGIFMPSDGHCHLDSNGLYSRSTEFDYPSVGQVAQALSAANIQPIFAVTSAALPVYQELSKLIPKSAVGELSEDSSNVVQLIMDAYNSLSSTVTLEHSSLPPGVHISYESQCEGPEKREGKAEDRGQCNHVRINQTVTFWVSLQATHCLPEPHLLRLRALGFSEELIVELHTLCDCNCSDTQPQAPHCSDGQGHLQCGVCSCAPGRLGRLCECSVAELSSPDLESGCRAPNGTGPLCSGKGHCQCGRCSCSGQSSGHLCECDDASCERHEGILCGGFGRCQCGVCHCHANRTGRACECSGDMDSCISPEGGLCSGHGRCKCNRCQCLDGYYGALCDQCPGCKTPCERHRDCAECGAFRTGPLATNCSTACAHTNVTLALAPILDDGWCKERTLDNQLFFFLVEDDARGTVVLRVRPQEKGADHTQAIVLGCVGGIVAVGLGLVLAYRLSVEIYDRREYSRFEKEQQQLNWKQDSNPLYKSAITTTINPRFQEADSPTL
Experiment: α4β7-K562 Cell Adhesion Assay (α4β7 Mediated Adhesion/VCAM-1)
Assay type: cell-based
Conditions: K562 cells expressing human α4β7 on recombinant hVCAM-1; read-out: α4β7 IC50
How it was run: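 Calcein AM-labelled K562 cells stably expressing human α4β7 adhered for 1 h at room temperature, with compound, to wells coated with recombinant hVCAM-1 (4.0 μg/mL, pH 9.0) and blocked with PBS/1% BSA. After washing, cells were lysed in 1% SDS/Tris pH 8.0 and fluorescence read at 485/530 nm.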

| Structure (SMILES) | IC50 |
| --- | --- |
| CC(C)(C)CCN1C2CCC(CC2)[C@H]1C(=O)N[C@@H](Cc1ccc(NC(=O)c2c(Cl)cncc2Cl)cc1)C(=O)O [Cpd 16, 3-{4-[(3,5-dichloro-pyridine-4-carbonyl)-amino]-phenyl}-2-{[2-(3,3-dimethyl-butyl)-2-aza-bicyclo[2.2.2]octane-3-carbonyl]-amino}-propionic acid] | 94 nM |
| O=C(Nc1ccc(CC(NC(=O)C2C3CCC(CC3)N2C(=O)Cc2ccsc2)C(=O)O)cc1)c1c(Cl)cncc1Cl (centres unmarked) [Cpd 3] | 41 nM |

From patent publication US20060223846A1, “Aza-bridged-bicyclic amino acid derivatives as alpha4 integrin antagonists” (priority 2005, published 2006)
